Reference: patent publication US4332895A, “Thermal stable beta-galactosidase” (National Research Development Corp., priority 1978, dated 1982)
Where two headings read alike, the source gives them in different places.

How the values were obtained:
Format in all cases: biochemical
[1] = tested on: β-galactosidase of Bacillus stearothermophilus HRI strains, whole cell suspension; experiment: β-galactosidase assay, toluene-treated whole cell suspension, ONPG or lactose as substrate; conditions: for Km: whole cell suspension, pH 7.0, 65° C.
Experimental: The cells are shaken at room temperature for about 5 minutes, and then harvested by centrifugation at 6000 g for 20 minutes in an MSE "Hi Spin 21" centrifuge prior to washing with buffer. […] The relation of Harris and Kornberg (Proc. Roy. Soc. Lond. B. 1972, 182, 159) is used to determine the cell density, 0.33 mg. dry wt. of B. stearothermophilus corresponding to an absorbance of 1.0 at 680 n.m. The assay used is based on that of Lederberg (J. […] Assays are carried out at incubation temperature of 65° C. and after the appropriate time interval the reactions are halted by addition of 3 ml aliquots of 0.5 M sodium bicarbonate to each reaction mixture and immediate cooling in an ice bath. The absorbance of the resultant solutions is measured at 410 nm using a Perkin-Elmer 124 double beam spectrophotometer. In the case of whole cell suspensions the assay tubes are centrifuged and in the case of the immobilised cells the mixtures are filtered, to remove cells and polyacrylamide gel respectively prior to measurement of the absorbance. […] The reaction mixtures are incubated for 15 minutes at 65° C., reactions are halted by addition of 4.2% perchloric acid and the solutions are centrifuged. Aliquots of the supernatant solutions are assayed for glucose or galactose. Glucose is estimated by a modification of the method of Trinder (Ann. Clin. […] Ltd.), 0.15 ml peroxidase (Boehringer Corp. Ltd.), 100 mg of 4-aminophenazone and 300 mg of sodium azide) followed by incubation at 37° C. for 10 minutes and absorbance measurement at 515 nm. […] Ltd.) is added, the solutions incubated at 37° C. for 30 minutes and the absorbance again measured at 340 nm.

[2] = tested on: β-galactosidase of Bacillus stearothermophilus HRI strains, entrapped whole cell preparation; experiment: β-galactosidase assay, polyacrylamide gel entrapped (immobilised) whole cell preparation, ONPG or lactose as substrate; conditions: for Km: entrapped whole cell preparation, pH 7.0, 65° C.
Experimental: Washed cells which have been toluene treated, as above, are resuspended in an equal volume of 50 mM sodium phosphate buffer, pH 7.0, containing acrylamide (200 g/l) and NN'-methylenebisacrylamide (20 g/l). Ammonium persulphate (2 […]) are added to this suspension which is then allowed to gel, and the gel is disrupted by forcing through a wire mesh, as described by Hjerten (Arch. Biochem. Biophys. […] The disrupted gel is freeze-dried to provide a stock of enzymatically active immobilised whole cell preparation. The assay used is based on that of Lederberg (J. […] Assays are carried out at incubation temperature of 65° C. and after the appropriate time interval the reactions are halted by addition of 3 ml aliquots of 0.5 M sodium bicarbonate to each reaction mixture and immediate cooling in an ice bath. The absorbance of the resultant solutions is measured at 410 nm using a Perkin-Elmer 124 double beam spectrophotometer. In the case of whole cell suspensions the assay tubes are centrifuged and in the case of the immobilised cells the mixtures are filtered, to remove cells and polyacrylamide gel respectively prior to measurement of the absorbance. […] The reaction mixtures are incubated for 15 minutes at 65° C., reactions are halted by addition of 4.2% perchloric acid and the solutions are centrifuged. Aliquots of the supernatant solutions are assayed for glucose or galactose. Glucose is estimated by a modification of the method of Trinder (Ann. Clin. […] Ltd.), 0.15 ml peroxidase (Boehringer Corp. Ltd.), 100 mg of 4-aminophenazone and 300 mg of sodium azide) followed by incubation at 37° C. for 10 minutes and absorbance measurement at 515 nm. […] Ltd.) is added, the solutions incubated at 37° C. for 30 minutes and the absorbance again measured at 340 nm.

[3] = tested on: β-galactosidase of Bacillus stearothermophilus HRI strains (HRI enzyme), purified enzyme; experiment: β-galactosidase assay, purified enzyme, ONPG or lactose as substrate
Experimental: The assay used is based on that of Lederberg (J. Bacteriol. 1950, 60, 381), using an assay mixture comprising 2.8 ml of 50 mM sodium phosphate, pH 7.0, and 0.1 ml of 68 mM ONPG. 0.1 ml aliquots of both purified enzyme and toluene-treated cell suspension, and 10 mg. amounts in 2.9 ml of buffer of freeze dried immobilised whole cell preparation are used for the assays. Assays are carried out at incubation temperature of 65° C. and after the appropriate time interval the reactions are halted by addition of 3 ml aliquots of 0.5 M sodium bicarbonate to each reaction mixture and immediate cooling in an ice bath. The absorbance of the resultant solutions is measured at 410 nm using a Perkin-Elmer 124 double beam spectrophotometer. In the case of whole cell suspensions the assay tubes are centrifuged and in the case of the immobilised cells the mixtures are filtered, to remove cells and polyacrylamide gel respectively prior to measurement of the absorbance.
The assay mixture used comprises 0.9 ml of 50 mM sodium phosphate buffer, pH 7.0, 4 ml of lactose (4 g in 100 ml of phosphate buffer), to which 0.1 ml of purified enzyme or cell suspension or 10 mg of gel entrapped cell preparation is added. The reaction mixtures are incubated for 15 minutes at 65° C., reactions are halted by addition of 4.2% perchloric acid and the solutions are centrifuged. Aliquots of the supernatant solutions are assayed for glucose or galactose.
Glucose is estimated by a modification of the method of Trinder (Ann. Clin. Biochem. 1969 6, 24). 1 ml aliquots of the supernatant solutions are assayed by addition to a mixture comprising 1 ml of 0.2% phenol and 3 ml of colour reagent (75 ml 4% (w/v) disodium hydrogen orthophosphate, 225 ml of water, 6 mg of glucose oxidase (Boehringer Corp. Ltd.), 0.15 ml peroxidase (Boehringer Corp. Ltd.), 100 mg of 4-aminophenazone and 300 mg of sodium azide) followed by incubation at 37° C. for 10 minutes and absorbance measurement at 515 nm.
Galactose is estimated as follows: a sample (e.g. 0.2 ml) containing not more than 200 μg/ml of galactose is mixed with 2.5 ml of buffer (4.8 g Na2 HPO4, 0.86g NaH2 PO4 and 0.2 g MgSO4 7H2 O per 200 ml of H2 O) and 0.1 ml of 10 mg/ml of NAD solution and the absorbance is measured at 340 nm. 0.02 ml of galactose dehydrogenase (Boehringer Corp. Ltd.) is added, the solutions incubated at 37° C. for 30 minutes and the absorbance again measured at 340 nm.

[4] = read-out: Michaelis constant (Km) with ONPG as substrate
[5] = read-out: Km with lactose as substrate

## N[C@@H](CS)C(=O)O [Cysteine, cysteine]
[1]; addition at 10 mM final, ONPG as substrate, whole cells, no addition = 100
  % Activity: 103.7%
[2]; addition at 10 mM final, ONPG as substrate, immobilised whole cells, no addition = 100
  % Activity: 109.4%
[3]; addition at 10 mM final, ONPG as substrate, purified enzyme, no addition = 100
  % Activity: 98.1%

## O=[N+]([O-])c1ccccc1O[C@@H]1O[C@H](CO)[C@H](O)[C@H](O)[C@H]1O [ONPG, orthonitrophenyl-β-D-galactopyranoside, reference compound]
[1]; [4]
  Km: 380 µM
[2]; [4]
  Km: 260 µM
[3]; HRI enzyme, measured at 65° C., read-out: Michaelis constant (Km) for ONPG
  Km: 430 µM
[3]; purified enzyme, pH 7.0, 65° C., read-out: Michaelis constant (Km) with ONPG as substrate
  Km: 430 µM

## OC[C@H]1O[C@@H](O[C@H]2[C@H](O)[C@@H](O)C(O)O[C@@H]2CO)[C@H](O)[C@@H](O)[C@H]1O (some centres unmarked) [lactose]
[1]; [5]
  Km: 11800 µM
[2]; [5]
  Km: 9520 µM
[3]; HRI enzyme, measured at 65° C., read-out: Michaelis constant (Km) for lactose
  Km: 2100 µM
[3]; purified enzyme extract, pH 7.0, 65° C., read-out: Km with lactose as substrate
  Km: 2060 µM
